Structures can show the parent of a compound that is named as a salt. *1 amine or outer side, *2 acyl side, *3 side chain or, on linkers, in order; H or OH if unused. Where a SMILES comes first, the peptide text is derived from it. Bridges are numbered along the chain shown (N, C = ends). Roman numbers before positions name the chains, in order. [ ]: non-standard residue; d: D form. Actinocin(9to1) = Cc1c2oc3c(C)ccc(C(=O)[*:1])c3nc-2c(C(=O)[*:2])c(N)c1=O; NMeV = CN[C@H](C(=O)O)C(C)C; Sar = CNCC(=O)O
Experiments:
[1] = oral administration, multiple myeloma; cited from earlier work
[2] = cited from earlier work; for elimination half-life: intravenous
[3] = previously untreated chronic myelogenous leukemia; cited from earlier work
[4] = tested on: HT-29 colon adenocarcinoma cells; test: Growth of HT-29 cells, viable cell count; type: cell-based, human; details: viable cell count 5 days after plating
Protocol: (§1) For these assays 2×10^4 cells are plated in 24 well multiwell tissue culture dishes, in 1 ml of DME/F12 media supplemented with 5% fetal bovine serum. After 24 h, media is replaced with fresh media containing the concentration of inhibitor to be tested, or no inhibitor as a control. Cells are counted 1, 3, and 5 days subsequent to addition of inhibitor. For the day 5 counts, media with fresh inhibitor is used to replace spent media after day 3. […] For counting viable cells, cultures are trypsinized, stained with trypan blue, and cell number determined by counting under light microscopy with the use of a hemacytometer. Benzodiazepine derivatives were tested at their maximally soluble concentrations in 0.1% DMSO diluted with tissue culture medium, and serial dilutions were made thereof. Every concentration tested was performed in triplicate, in identical wells under identical assay conditions.

[5] = target: FGFr (fibroblast growth factor receptor catalytic domain); test: FGFr tyrosine kinase activity, poly E4Y and 32P-ATP; type: biochemical, human
Excerpt: (§2) The genes encoding Csk, Lck, Abl, and the FGF receptor have all been cloned. The genes encoding Csk, Abl, and the FGF receptor were cloned from humans, and the genes encoding Lck were cloned from a mouse. Recombinant Csk, Lck, Abl, and the FGFr were expressed as glutathione-S-transferase fusion proteins using the pGEX expression vector and E. coli, and purified as described (Sun et al., 1995).
(§3) Recombinant Src was expressed using the baculovirus-insect cell system and purified as published (Budde et al, 1993). Recombinant Csk, Lck, Abl, and the FGFr were expressed as glutathione-S-transferase fusion proteins using the pGEX expression vector and E. coli, and purified as described (Sun and Budde, 1995).
(§4) The tyrosine kinase activity of Src, Lck (p56^lck), Csk (C-Src kinase), Abl (Bcr-Abl catalytic domain), and the FGFr (fibroblast growth factor receptor catalytic domain), was determined using poly E4 Y and ^32 P-ATP.

[6] = tested on: HT-29 colon adenocarcinoma cells; test: Anchorage-independent growth, soft agar colony formation; type: cell-based, human
Protocol: Soft agar colony formation is used to determine anchorage independent growth, an in vitro parameter which correlates well with tumorigenicity of HT 29 cells. (AFB-13 cells are unable to form soft agar colonies, a characteristic of normal cells). These assays are performed in 6 well ([…]) multiwell tissue culture dishes. The wells are underlayed with 1% low melting agarose in complete growth media, and refrigerated for 15 min. 1×10^3 HT 29 cells are then added to the wells in complete media in 0.5% low melting agarose. […] After a 24 h incubation period, 0.5 mL of media containing compound to be tested (or media alone as a control) is added to the dish. During the assay, media with or without the test compound is replenished every 3 days. Colonies estimated to contain >100 cells are counted after 14 days. For compounds that induce growth inhibition, the assay is continued to 28 days to assure that differences in colony forming ability were not due to altered growth rate of cells. For initial screening, assays are performed in duplicate for each compound to be tested, due to the large amount of inhibitor required for the length of the study.

[7] = tested on: AFB-13 normal human fibroblasts; test: Growth of AFB-13 cells, control for cellular toxicity; type: cell-based
Protocol: as §1

Src [8] = target: T1, Src (Homo sapiens, UniProt P12931); test: Src tyrosine kinase activity, poly E4Y and 32P-ATP; type: biochemical; details: for Ki: Table 10, benzodiazepines as inhibitors of Src
T1 construct: made in house; host or cells: baculovirus-insect cell system
Protocol: The compounds within the library were screened at a concentration of 100 μM using the following assay procedure. A 10 μL aliquot of poly(Glu:Tyr, 4:1) to final concentration of 200 μg/mL, 20 μL of benzodiazepine to be tested, 10 μL of purified Src and 10 μL of [gamma-^32 P]-ATP-MgCl2 cocktail (final concentration of 0.2 mM ATP; specific activity of 600 dpm/pmol, and 6 mM MgCl2) were mixed and incubated in 0.5 mL test tubes at ambient temperature. After 30 min, a 35 μL aliquot was spotted onto a 1×1 inch 3 MM filter paper and dropped into a 5% TCA bath at 60° C. The filter papers were washed 3 times with 5% TCA and air dried. The filter papers were then placed into a vial, 3 mL scintillation cocktail added, and analyzed by liquid scintillation counting.
as §4

protein kinase A (PKA) = protein kinase A (PKA) (Homo sapiens, UniProt P17612); test: Enzyme panel: protein kinase A; type: biochemical
Lck (p56^lck) = target: T2, Lck (p56^lck) (Mus musculus, UniProt P06240); test: Lck tyrosine kinase activity, poly E4Y and 32P-ATP; type: biochemical
T2 construct: glutathione-S-transferase (GST) (N); made in house; host or cells: E. coli
Excerpt: as §2, §3, §4

Csk (C-Src kinase) = target: T3, Csk (C-Src kinase) (Homo sapiens, UniProt P41240); test: Csk tyrosine kinase activity, poly E4Y and 32P-ATP; type: biochemical
T3 construct: glutathione-S-transferase (GST) (N); made in house; host or cells: E. coli
Excerpt: as §2, §3, §4

[9] = target: T4, Abl (Bcr-Abl catalytic domain) (Homo sapiens, UniProt P00519); test: Abl tyrosine kinase activity, poly E4Y and 32P-ATP; type: biochemical
T4 construct: Abl (Bcr-Abl catalytic domain); glutathione-S-transferase (GST) (N); made in house; host or cells: E. coli
T4 sequence (P00519 242-493 limits assumed): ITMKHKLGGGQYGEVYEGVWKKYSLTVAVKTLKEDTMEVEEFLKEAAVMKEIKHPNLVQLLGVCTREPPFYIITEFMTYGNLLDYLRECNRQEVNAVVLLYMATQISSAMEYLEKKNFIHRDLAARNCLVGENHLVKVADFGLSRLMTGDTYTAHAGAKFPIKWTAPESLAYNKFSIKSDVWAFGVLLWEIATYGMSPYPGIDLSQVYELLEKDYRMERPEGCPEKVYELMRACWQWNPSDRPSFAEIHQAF
Excerpt: as §2, §3, §4

hexokinase (HXK) = test: Enzyme panel: hexokinase; type: biochemical
[10] = cited from earlier work
[11] = human, in vivo; cited from earlier work
Src [12] = details: Table 10, published peptides as inhibitors of Src; cited from earlier work
[13] = Homo sapiens, HT-29, 336 h, colonies ≥100 cells 14 days after plating
[14] = Homo sapiens, Fibroblast, 120 h, viable cell count 5 days after plating

T1 sequence (P12931 whole entry, species assumed): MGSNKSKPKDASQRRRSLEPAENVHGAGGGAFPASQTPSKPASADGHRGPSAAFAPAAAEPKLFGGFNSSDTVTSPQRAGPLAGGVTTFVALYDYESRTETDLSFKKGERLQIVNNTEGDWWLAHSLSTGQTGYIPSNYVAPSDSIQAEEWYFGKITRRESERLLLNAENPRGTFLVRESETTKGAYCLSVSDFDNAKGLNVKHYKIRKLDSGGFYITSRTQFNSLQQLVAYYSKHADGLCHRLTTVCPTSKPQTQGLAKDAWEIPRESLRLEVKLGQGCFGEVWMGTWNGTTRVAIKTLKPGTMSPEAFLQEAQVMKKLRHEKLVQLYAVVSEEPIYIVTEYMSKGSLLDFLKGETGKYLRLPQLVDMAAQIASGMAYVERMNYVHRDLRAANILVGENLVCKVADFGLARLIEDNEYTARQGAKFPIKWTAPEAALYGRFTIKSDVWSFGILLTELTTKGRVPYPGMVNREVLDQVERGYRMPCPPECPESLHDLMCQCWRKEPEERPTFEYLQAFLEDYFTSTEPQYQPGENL
T3 sequence (P41240 whole entry): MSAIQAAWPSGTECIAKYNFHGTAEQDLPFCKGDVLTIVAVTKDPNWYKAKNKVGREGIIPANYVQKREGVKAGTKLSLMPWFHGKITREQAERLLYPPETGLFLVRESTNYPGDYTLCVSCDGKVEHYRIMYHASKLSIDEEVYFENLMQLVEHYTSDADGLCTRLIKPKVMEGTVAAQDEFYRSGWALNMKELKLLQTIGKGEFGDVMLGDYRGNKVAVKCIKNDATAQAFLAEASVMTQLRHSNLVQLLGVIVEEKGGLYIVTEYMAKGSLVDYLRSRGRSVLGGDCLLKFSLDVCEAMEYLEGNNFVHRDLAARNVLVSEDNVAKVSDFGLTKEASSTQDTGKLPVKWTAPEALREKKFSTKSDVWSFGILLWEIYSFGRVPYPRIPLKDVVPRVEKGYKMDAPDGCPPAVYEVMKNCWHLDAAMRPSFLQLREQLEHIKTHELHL
T2 sequence (P06240 whole entry): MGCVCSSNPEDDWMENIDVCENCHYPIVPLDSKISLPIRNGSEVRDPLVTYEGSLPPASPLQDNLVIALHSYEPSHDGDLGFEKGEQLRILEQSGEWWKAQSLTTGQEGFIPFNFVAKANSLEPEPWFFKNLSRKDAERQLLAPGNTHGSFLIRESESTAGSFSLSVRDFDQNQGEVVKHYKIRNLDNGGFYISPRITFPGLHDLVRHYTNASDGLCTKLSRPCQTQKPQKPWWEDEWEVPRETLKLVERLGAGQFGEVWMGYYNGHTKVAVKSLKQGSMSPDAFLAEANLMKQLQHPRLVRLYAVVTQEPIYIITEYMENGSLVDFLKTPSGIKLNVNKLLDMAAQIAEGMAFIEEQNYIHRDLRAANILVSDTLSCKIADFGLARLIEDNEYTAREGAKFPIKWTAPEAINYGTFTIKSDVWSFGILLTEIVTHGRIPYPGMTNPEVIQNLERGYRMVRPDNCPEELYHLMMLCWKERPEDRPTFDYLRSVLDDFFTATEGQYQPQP

## 4-[bis(2-chloroethyl)amino]-L-phenylalanine [Melphalan]
[1]
  patients showing a favorable response: one third to one half

## Cc1c2oc3c(C)ccc(C(=O)N[C@@H]4C(=O)N[C@H](C(C)C)C(=O)N5CCC[C@H]5C(=O)N(C)CC(=O)N(C)[C@@H](C(C)C)C(=O)O[C@@H]4C)c3nc-2c(C(=O)N[C@@H]2C(=O)N[C@H](C(C)C)C(=O)N3CCC[C@H]3C(=O)N(C)CC(=O)N(C)[C@@H](C(C)C)C(=O)O[C@@H]2C)c(N)c1=O [Actinomycin D] (I: T[dV]P[Sar][NMeV] / II: T[dV]P[Sar][NMeV]; ester I:1-I:C, II:1-II:C; linker I:N-II:N via Actinocin(9to1))
[2]; in vivo
  dose excreted intact into the bile: Half
  passage of the blood-brain barrier: does not pass the blood-brain barrier

## CS(=O)(=O)OCCCCOS(C)(=O)=O [Busulfan, 1,4-butanediol dimethanesulfonate]
[3]
  adults obtaining hematologic remission: Approximately 90%

## O=C(O)CCCc1ccc(N(CCCl)CCCl)cc1 [Chlorambucil, 4-[bis(2-chlorethyl)amino]benzenebutanoic acid]
[2]; single oral doses of 0.6-[…]
  terminal half-life of the parent drug: 1.5 h

## N.N.[Cl][Pt][Cl] [Cisplatin]
[2]; in vivo
  oral absorption: not absorbed orally

## O=C1[C@@H](Cc2ccc(O)cc2)N=C(c2ccc(O)cc2)c2cc(Cl)ccc2N1Cc1ccc(-c2ccccc2)cc1 [D-Tyr,BnzPh, 7-chloro-1,3-dihydro-1-(-4-biphenylmethyl)-3-(-4-hydroxyphenylmethyl)-5-(4-hydroxyphenyl)-(2H)1,4-benzodiazepin-2-one]
[4]; 32 μM
  HT-29 Growth: cytotoxic
[4]; Homo sapiens, HT-29, 120 h
  activity at 3 µM: 94 ± 9%
[4]; Homo sapiens, HT-29, 120 h, 16 μM
  activity at 16 µM: 74 ± 5%
[5]
  IC50: 335 µM
[6]; [13]
  activity at 3 µM: 94%
[6]; Homo sapiens, HT-29, 336 h, 16 μM, colonies ≥100 cells 14 days after plating
  activity at 16 µM: 90%
[6]; Homo sapiens, HT-29, 336 h, 32 μM, colonies ≥100 cells 14 days after plating
  activity at 32 µM: 100%
[7]; [14]
  activity at 3 µM: 89 ± 6%
[7]; Homo sapiens, Fibroblast, 120 h, 16 μM, viable cell count 5 days after plating
  activity at 16 µM: 100 ± 4%
[7]; Homo sapiens, Fibroblast, 120 h, 32 μM, viable cell count 5 days after plating
  activity at 32 µM: 100 ± 7%
Src [8]
  IC50: 97 µM
  Ki: 43 µM
Protein kinase A (PKA)
  IC50: 54 µM
Lck (p56^lck)
  IC50: 640 µM
Csk (C-Src kinase)
  IC50: 404 µM

## COc1cccc2c1C(=O)c1c(O)c3c(c(O)c1C2=O)C[C@@](O)(C(C)=O)C[C@@H]3O[C@H]1C[C@H](N)[C@H](O)[C@H](C)O1 [Daunorubicin, 5,12-Naphthacenedione, (8S-cis)-8-acetyl-10-[(3-amino-2,3,6-trideoxy-α-L-lyxo-hexanopyranosyl)oxy]-7,8,9,10-tetrahydro-6,8,11-trihydroxy-10-methoxy-, hydrochloride]
[2]; in vivo
  oral absorption: poor
[2]
  elimination half-life: about 19 hr

## COc1cccc2c1C(=O)c1c(O)c3c(c(O)c1C2=O)C[C@@](O)(C(=O)CO)C[C@@H]3O[C@H]1C[C@H](N)[C@H](O)[C@H](C)O1 [Doxorubicin, 5,12-Naphthacenedione, (8s-cis)-10-[(3-amino-2,3,6-trideoxy-α-L-lyxo-hexopyranosyl)oxy]-7,8,9,10-tetrahydro-6,8,11-trihydroxy-8-(hydroxyacetyl)-1-methoxy-hydrochloride]
[2]; in vivo
  oral absorption: absorbed poorly
  secreted into the bile: Forty to 50
[2]
  elimination half-life: about 30 hr

## O=C1[C@H](Cc2ccc(O)cc2)N=C(c2ccc(O)cc2)c2cc(Cl)ccc2N1Cc1ccccc1 [L-Tyr,Bnz]
[4]; Homo sapiens, HT-29, 120 h
  activity at 3 µM: 100 ± 3%
[4]; Homo sapiens, HT-29, 120 h, 15 μM
  activity at 15 µM: 84 ± 6%
[4]; Homo sapiens, HT-29, 120 h, 30 μM
  activity at 30 µM: 73 ± 9%
[9]
  IC50: 931 µM
[5]
  IC50: 418 µM
[6]; 30 μM
  inhibition of colony formation of HT-29 colon adenocarcinoma cells: complete inhibition
[6]; [13]
  activity at 3 µM: 52%
[6]; Homo sapiens, HT-29, 336 h, 15 μM, colonies ≥100 cells 14 days after plating
  activity at 15 µM: 11%
[6]; Homo sapiens, HT-29, 336 h, 30 μM, colonies ≥100 cells 14 days after plating
  activity at 30 µM: 0%
[7]; [14]
  activity at 3 µM: 100 ± 4%
[7]; Homo sapiens, Fibroblast, 120 h, 15 μM, viable cell count 5 days after plating
  activity at 15 µM: 92 ± 6%
[7]; Homo sapiens, Fibroblast, 120 h, 30 μM, viable cell count 5 days after plating
  activity at 30 µM: 92 ± 8%
[7]; same concentrations (up to 30 μM)
  inhibition of growth of AFB-13 normal fibroblasts: no inhibition
Hexokinase (HXK)
  IC50: 352 µM
Src [8]
  IC50: 190 µM
  Ki: 74 µM
Protein kinase A (PKA)
  IC50: 124 µM
Lck (p56^lck)
  IC50: 570 µM
Csk (C-Src kinase)
  IC50: 404 µM

## O=NN(CCCl)C(=O)NC1CCCCC1 [Lomustine, 1-(2-chloro-ethyl)-3-cyclohexyl-1 nitrosourea]
[10]; absolute alcohol
  solubility in absolute alcohol: 70 mg per ml
[10]; water
  solubility in water: < 0.05 mg per ml
[2]; oral radioactive drug, 30 mg/m^2 to 100 mg/m^2
  radioactivity excreted as degradation products within 24 hours: about half

## CO[C@@]12[C@H](COC(N)=O)C3=C(C(=O)C(C)=C(N)C3=O)N1C[C@@H]1N[C@@H]12 [Mitomycin]
[11]
  dose excreted unchanged in the urine: Approximately 10%

## DRVYVHPF
Src [12]
  Ki: 3100 µM

## EEIYGEFE
Src [12]
  Ki: 70 µM

## EFEYAFF
Src [12]
  Ki: 130 µM

## KKSRGDYMTMQIG
Src [12]
  Ki: 200 µM

## RDRVYVHPF
Src [12]
  Ki: 2600 µM

## RRLIEDAEYAARG
Src [12]
  Ki: 10000 µM

## YIYGSFK
Src [12]
  Ki: 1600 µM

Reference: patent US6100254A, “Inhibitors of protein tyrosine kinases” (Board of Regents, The University of Texas System, priority 1997, dated 2000)
